Source: ChEMBL document CHEMBL1138985, “Discovery of potent, selective, and orally bioavailable pyridone-based dipeptidyl peptidase-4 inhibitors” (Bioorg Med Chem Lett, 2006)

Experiments:
Dipeptidyl peptidase 8 = Dipeptidyl peptidase 8 (Homo sapiens, UniProt Q6V1X1)
Dipeptidyl peptidase 9 = Dipeptidyl peptidase 9 (Homo sapiens, UniProt Q86TI2)
[1] = Plasma clearance in rat at 1 mg/kg, iv or 2 mg/kg, po; format: ADME, organism-based
[2] = Half life in rat at 1 mg/kg, iv or 2 mg/kg, po; format: ADME, organism-based; settings: in vivo
[3] = Bioavailability in rat at 1 mg/kg, iv or 2 mg/kg, po; format: ADME, organism-based; settings: in vivo
[4] = biological target: Voltage-gated inwardly rectifying potassium channel KCNH2 (Homo sapiens, UniProt Q12809); experiment: Binding to human ERG potassium channel
Voltage-gated inwardly rectifying potassium channel KCNH2, sequence (Q12809 whole entry): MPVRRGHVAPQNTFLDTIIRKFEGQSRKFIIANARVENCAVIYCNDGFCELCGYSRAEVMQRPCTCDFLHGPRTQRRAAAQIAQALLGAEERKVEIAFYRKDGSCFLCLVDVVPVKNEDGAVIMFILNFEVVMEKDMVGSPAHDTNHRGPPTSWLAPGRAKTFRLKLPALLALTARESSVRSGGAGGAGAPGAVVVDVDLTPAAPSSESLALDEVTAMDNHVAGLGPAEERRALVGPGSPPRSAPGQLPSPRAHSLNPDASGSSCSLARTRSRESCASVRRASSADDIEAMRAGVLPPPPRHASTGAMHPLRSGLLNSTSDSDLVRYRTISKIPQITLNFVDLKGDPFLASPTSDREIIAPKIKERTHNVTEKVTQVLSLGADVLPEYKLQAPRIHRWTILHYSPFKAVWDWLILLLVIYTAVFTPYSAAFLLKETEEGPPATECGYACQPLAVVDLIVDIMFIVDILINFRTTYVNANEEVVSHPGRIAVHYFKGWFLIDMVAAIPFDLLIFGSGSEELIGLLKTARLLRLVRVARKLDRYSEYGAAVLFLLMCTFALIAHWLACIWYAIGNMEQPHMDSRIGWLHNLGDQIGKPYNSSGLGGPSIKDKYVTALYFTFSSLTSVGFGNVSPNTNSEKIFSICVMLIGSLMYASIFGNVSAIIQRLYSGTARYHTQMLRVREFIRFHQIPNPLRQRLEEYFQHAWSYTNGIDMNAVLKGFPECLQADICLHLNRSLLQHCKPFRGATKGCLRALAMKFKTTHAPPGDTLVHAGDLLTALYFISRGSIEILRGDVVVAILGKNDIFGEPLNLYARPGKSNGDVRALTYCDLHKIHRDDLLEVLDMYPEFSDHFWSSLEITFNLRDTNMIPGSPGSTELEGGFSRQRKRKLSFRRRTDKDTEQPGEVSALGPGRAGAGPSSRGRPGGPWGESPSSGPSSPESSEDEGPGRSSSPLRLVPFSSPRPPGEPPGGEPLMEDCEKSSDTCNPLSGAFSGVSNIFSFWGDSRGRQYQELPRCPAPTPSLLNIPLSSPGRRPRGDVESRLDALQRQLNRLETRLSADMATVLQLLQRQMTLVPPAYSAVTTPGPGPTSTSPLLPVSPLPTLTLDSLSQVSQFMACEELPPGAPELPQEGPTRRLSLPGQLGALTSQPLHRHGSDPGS

Dipeptidyl peptidase 2 = Dipeptidyl peptidase 2 (Homo sapiens, UniProt Q9UHL4); experiment: Inhibition of QPP
[5] = Plasma clearance in dog at 1 mg/kg, iv or 2 mg/kg, po; format: ADME, organism-based, Canis lupus familiaris
[6] = Plasma clearance in rhesus monkey at 1 mg/kg, iv or 2 mg/kg, po; format: ADME, organism-based, Macaca mulatta
[7] = Half life in dog at 1 mg/kg, iv or 2 mg/kg, po; format: ADME, organism-based, Canis lupus familiaris; settings: in vivo
[8] = Bioavailability in dog at 1 mg/kg, iv or 2 mg/kg, po; format: ADME, organism-based, Canis lupus familiaris; settings: in vivo
[9] = Half life in rhesus monkey at 1 mg/kg, iv or 2 mg/kg, po; format: ADME, organism-based, Macaca mulatta; settings: in vivo
[10] = Bioavailability in rhesus monkey at 1 mg/kg, iv or 2 mg/kg, po; format: ADME, organism-based, Macaca mulatta; settings: in vivo
Mus musculus [11] = experiment: Reduction of glucose excursion at 1 mg/kg, po in mouse by Oral Glucose Tolerance Test; format: functional; design: scale not given: the % may be the effect or the level left
Mus musculus [12] = experiment: Reduction of glucose excursion at 10 mg/kg, po in mouse by Oral Glucose Tolerance Test; format: functional; design: scale not given: the % may be the effect or the level left

Dipeptidyl peptidase 9, sequence (Q86TI2 whole entry): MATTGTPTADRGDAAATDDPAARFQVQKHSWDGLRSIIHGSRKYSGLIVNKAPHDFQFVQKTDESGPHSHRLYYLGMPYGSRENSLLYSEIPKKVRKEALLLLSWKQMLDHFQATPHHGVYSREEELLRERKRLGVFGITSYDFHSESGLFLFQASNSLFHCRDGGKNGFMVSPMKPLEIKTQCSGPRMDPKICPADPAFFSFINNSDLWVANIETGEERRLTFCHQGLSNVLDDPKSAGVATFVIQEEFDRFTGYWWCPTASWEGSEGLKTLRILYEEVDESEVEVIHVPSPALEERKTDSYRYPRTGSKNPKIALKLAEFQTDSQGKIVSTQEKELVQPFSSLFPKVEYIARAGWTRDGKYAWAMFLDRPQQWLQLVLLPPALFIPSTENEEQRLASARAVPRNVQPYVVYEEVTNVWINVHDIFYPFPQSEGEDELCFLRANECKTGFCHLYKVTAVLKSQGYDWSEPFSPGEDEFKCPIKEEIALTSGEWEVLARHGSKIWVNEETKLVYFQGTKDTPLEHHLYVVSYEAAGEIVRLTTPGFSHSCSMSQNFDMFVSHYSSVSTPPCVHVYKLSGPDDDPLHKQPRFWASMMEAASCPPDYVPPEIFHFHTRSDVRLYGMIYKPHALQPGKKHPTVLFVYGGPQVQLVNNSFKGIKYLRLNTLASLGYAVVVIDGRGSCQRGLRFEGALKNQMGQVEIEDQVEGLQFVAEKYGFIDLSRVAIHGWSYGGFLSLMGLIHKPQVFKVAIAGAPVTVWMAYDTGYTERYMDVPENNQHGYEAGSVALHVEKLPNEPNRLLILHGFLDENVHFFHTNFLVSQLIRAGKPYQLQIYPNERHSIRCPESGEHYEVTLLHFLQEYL
Dipeptidyl peptidase 8, sequence (Q6V1X1 whole entry): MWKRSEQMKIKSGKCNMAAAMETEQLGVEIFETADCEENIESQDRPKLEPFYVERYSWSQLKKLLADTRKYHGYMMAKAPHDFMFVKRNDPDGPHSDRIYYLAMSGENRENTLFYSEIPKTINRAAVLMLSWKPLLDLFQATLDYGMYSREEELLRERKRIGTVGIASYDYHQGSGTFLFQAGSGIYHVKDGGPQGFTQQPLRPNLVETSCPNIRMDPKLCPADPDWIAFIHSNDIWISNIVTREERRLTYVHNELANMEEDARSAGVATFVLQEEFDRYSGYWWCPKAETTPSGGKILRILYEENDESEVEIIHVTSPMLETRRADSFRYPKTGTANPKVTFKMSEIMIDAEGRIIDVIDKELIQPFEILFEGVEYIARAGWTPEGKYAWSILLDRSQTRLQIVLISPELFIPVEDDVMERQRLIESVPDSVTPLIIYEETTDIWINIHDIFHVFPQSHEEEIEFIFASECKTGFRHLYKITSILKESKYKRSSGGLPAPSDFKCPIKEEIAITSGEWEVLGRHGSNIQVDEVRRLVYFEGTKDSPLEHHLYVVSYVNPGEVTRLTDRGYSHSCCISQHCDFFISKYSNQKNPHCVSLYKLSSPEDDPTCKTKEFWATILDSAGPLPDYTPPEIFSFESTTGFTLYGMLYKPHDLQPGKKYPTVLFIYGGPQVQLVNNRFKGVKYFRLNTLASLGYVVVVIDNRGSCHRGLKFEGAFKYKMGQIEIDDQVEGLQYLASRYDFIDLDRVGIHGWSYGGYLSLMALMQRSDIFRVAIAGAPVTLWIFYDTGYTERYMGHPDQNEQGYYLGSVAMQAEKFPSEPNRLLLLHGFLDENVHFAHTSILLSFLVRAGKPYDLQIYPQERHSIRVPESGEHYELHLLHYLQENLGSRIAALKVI

CCOC(=O)Cn1cc(-c2ccc([C@H](C)[C@H](N)C(=O)N3CC[C@H](F)C3)cc2)ccc1=O
IC50 (Dipeptidyl peptidase 8): > 100 µM | IC50 (Dipeptidyl peptidase 9): > 100 µM

C[C@@H](c1ccc(-c2ccc(O)nc2)cc1)[C@H](N)C(=O)N1CC[C@H](F)C1.O=C(O)C(F)(F)F
clearance [1]: 35.8 mL/min/kg | half-life [2]: 1.9 h | bioavailability [3]: 10% | IC50 [4]: 8.3 µM | IC50 (Dipeptidyl peptidase 8): > 100 µM | IC50 (Dipeptidyl peptidase 9): > 100 µM

C[C@@H](c1ccc(-c2cn(C)c(=O)cc2CO)cc1)[C@H](N)C(=O)N1CC[C@H](F)C1.O=C(O)C(F)(F)F
clearance [1]: 68.1 mL/min/kg | half-life [2]: 2.6 h | bioavailability [3]: 3% | IC50 (Dipeptidyl peptidase 2): > 100 µM | IC50 (Dipeptidyl peptidase 8): > 100 µM | IC50 (Dipeptidyl peptidase 9): > 100 µM

C[C@@H](c1ccc(-c2cn(C)c(=O)cc2F)cc1)[C@H](N)C(=O)N1CC[C@H](F)C1
IC50 (Dipeptidyl peptidase 8): > 100 µM | IC50 (Dipeptidyl peptidase 9): > 100 µM

Cc1c(-c2ccc([C@H](C)[C@H](N)C(=O)N3CC[C@H](F)C3)cc2)ccc(=O)n1C
IC50 (Dipeptidyl peptidase 8): > 100 µM | IC50 (Dipeptidyl peptidase 9): > 100 µM

C[C@@H](c1ccc(-c2ccc(=O)n(C)c2)cc1)[C@H](N)C(=O)N1CCC(F)CC1
IC50 (Dipeptidyl peptidase 8): > 100 µM | IC50 (Dipeptidyl peptidase 9): > 100 µM

C[C@@H](c1ccc(-c2ccc(=O)n(-c3ccc(F)cc3)c2)cc1)[C@H](N)C(=O)N1CC[C@H](F)C1
IC50 (Dipeptidyl peptidase 8): > 100 µM | IC50 (Dipeptidyl peptidase 9): > 100 µM

Cc1c(-c2ccc([C@H](C)[C@H](N)C(=O)N3CC[C@H](F)C3)cc2)cc(Br)c(=O)n1C
IC50 (Dipeptidyl peptidase 8): > 100 µM | IC50 (Dipeptidyl peptidase 9): > 100 µM

Cc1cc(=O)n(C)cc1-c1ccc([C@H](C)[C@H](N)C(=O)N2CC[C@H](F)C2)cc1
IC50 (Dipeptidyl peptidase 8): > 100 µM | IC50 (Dipeptidyl peptidase 9): > 100 µM

COc1cc(=O)n(C)cc1-c1ccc([C@H](C)[C@H](N)C(=O)N2CC[C@H](F)C2)cc1
IC50 (Dipeptidyl peptidase 8): > 100 µM | IC50 (Dipeptidyl peptidase 9): > 100 µM

CCn1cc(-c2ccc([C@H](C)[C@H](N)C(=O)N3CC[C@H](F)C3)cc2)ccc1=O
IC50 (Dipeptidyl peptidase 8): > 100 µM | IC50 (Dipeptidyl peptidase 9): > 100 µM

C[C@@H](c1ccc(-c2ccc(=O)n(C)c2)cc1)[C@H](N)C(=O)N1CC(F)C1
IC50 (Dipeptidyl peptidase 8): > 100 µM | IC50 (Dipeptidyl peptidase 9): > 100 µM

CCOC(=O)C(F)(F)n1cc(-c2ccc([C@H](C)[C@H](N)C(=O)N3CC[C@H](F)C3)cc2)ccc1=O
IC50 (Dipeptidyl peptidase 8): > 100 µM | IC50 (Dipeptidyl peptidase 9): > 100 µM

CCOC(=O)Nc1c(-c2ccc([C@H](C)[C@H](N)C(=O)N3CC[C@H](F)C3)cc2)cn(C)c(=O)c1F
IC50 (Dipeptidyl peptidase 8): > 100 µM

C[C@@H](c1ccc(-c2cn(C)c(=O)c(Cl)c2F)cc1)[C@H](N)C(=O)N1CC[C@H](F)C1
IC50 (Dipeptidyl peptidase 8): > 100 µM | IC50 (Dipeptidyl peptidase 9): > 100 µM

C[C@@H](c1ccc(-c2ccc(=O)n(C)c2)cc1)[C@H](N)C(=O)N1CCSC1
IC50 (Dipeptidyl peptidase 8): > 100 µM | IC50 (Dipeptidyl peptidase 9): > 100 µM

C[C@@H](c1ccc(-c2cc(Br)c(=O)n(C)c2)cc1)[C@H](N)C(=O)N1CC[C@H](F)C1
IC50 (Dipeptidyl peptidase 8): > 100 µM | IC50 (Dipeptidyl peptidase 9): > 100 µM

C[C@@H](c1ccc(-c2ccc(=O)n(C)c2)cc1)[C@H](N)C(=O)N1CCC(F)(F)C1
IC50 (Dipeptidyl peptidase 8): > 100 µM | IC50 (Dipeptidyl peptidase 9): > 100 µM

C[C@@H](c1ccc(-c2ccc(=O)n(C)c2)cc1)[C@H](N)C(=O)N1CCCC1
IC50 (Dipeptidyl peptidase 8): > 100 µM | IC50 (Dipeptidyl peptidase 9): > 100 µM

C[C@@H](c1ccc(-c2ccc(=O)n(C)c2F)cc1)[C@H](N)C(=O)N1CC[C@H](F)C1.O=C(O)C(F)(F)F
clearance [1]: 11.2 mL/min/kg | half-life [2]: 1.1 h | bioavailability [3]: 61% | IC50 (Dipeptidyl peptidase 8): > 100 µM | IC50 (Dipeptidyl peptidase 9): > 100 µM

C[C@@H](c1ccc(-c2ccc(=O)n(C)c2)cc1)[C@H](N)C(=O)N1CC[C@H](F)C1.O=C(O)C(F)(F)F
clearance [5]: 4.7 mL/min/kg | clearance [1]: 7.7 mL/min/kg | half-life [2]: 1.4 h | bioavailability [3]: 34% | clearance [6]: 6.7 mL/min/kg | half-life [7]: 3.8 h | bioavailability [8]: 95% | half-life [9]: 3.9 h | bioavailability [10]: 50% | Activity (Mus musculus [11]): 33% | Activity (Mus musculus [12]): 56% | IC50 (Dipeptidyl peptidase 8): > 100 µM | IC50 (Dipeptidyl peptidase 9): > 100 µM

C[C@@H](c1ccc(-c2cc(F)c(=O)n(C)c2)cc1)[C@H](N)C(=O)N1CC[C@H](F)C1
IC50 (Dipeptidyl peptidase 9): > 100 µM

C[C@@H](c1ccc(-c2ccc(=O)n(CC3CC3)c2)cc1)[C@H](N)C(=O)N1CC[C@H](F)C1
IC50 (Dipeptidyl peptidase 8): > 100 µM | IC50 (Dipeptidyl peptidase 9): > 100 µM
